The data set in a line: gradient 5% acetonitrile 3 min, to 50% in 2 min, to 85% in 15 min, held 3 min, 100 µL/min. The following applies: column: Zorbax Extend-C18 2.1 x 50 mm; eluents: water / acetonitrile, 0.1% formic acid. The method in brief: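 Standards, all pure, were combined into mixtures of ~100 molecules and run at 100 μL/min on a Zorbax Extend-C18 column (2.1 × 50 mm, 1.8 μm) with water and acetonitrile, each containing 0.1% formic acid. A coupled quadrupole time-of-flight mass spectrometer operated in positive and negative ionization mode. Retention time values come from computationally picked adduct peaks, each inspected manually.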
Compound `COc1ccc(N2CCN(c3cc(C(=O)O)c4cc(NC(=O)CC(C)C)ccc4n3)CC2)cc1` yielded an RP-LC retention time of 655 s. With `CC(C)n1c(N2CCCN(C(=O)COc3ccc(Cl)cc3)CC2)cc(=O)n(C(C)C)c1=O` the figure was 914 s; with `O=C1[C@@H]2Cc3c([nH]c4ccccc34)C(CCc3ccccc3)N2C(=O)CN1Cc1ccco1` (stereo partly drawn), 1000 s. With `Cc1cc(F)ccc1NS(=O)(=O)c1cn(CC(C)C)c2ncccc12` the figure was 986 s; with `CC1CCCCN1CCCNC(=O)Cn1c(=O)c2cccn2c2ccc(F)cc21` (stereo not drawn), 611 s; with `CCc1ccc(N2C(=O)CN(Cc3ccccc3Cl)[C@H]3CS(=O)(=O)C[C@H]32)cc1`, 910 s. For `CCc1nc(-c2csc(S(=O)(=O)N3CCCC(C(=O)NC4CCCCCC4)C3)c2)no1` (stereo not drawn), the RP-LC retention time was 1060 s. As to `Cc1ccc(-c2csc(NC(=O)CCc3nc(CSc4nc5ccccc5o4)no3)n2)cc1`, the RP-LC retention time came out at 1130 s. The same measure for `Cc1ccc(-c2noc(-c3nc(Cc4ccccc4)no3)n2)cc1`: 1240 s. With `CCc1ccc(-c2noc(Cn3c(=O)n(-c4ccc(F)cc4)c(=O)c4sccc43)n2)cc1` the figure was 1090 s; with `CC(C)C(=O)N1CCc2ccc([N+](=O)[O-])cc2C1`, 728 s. Compound `COc1cc2c(c(OC)c1OC)-c1ccc(OC)c(=O)cc1[C@@H](NC(=O)c1ccccc1)CC2` displayed an RP-LC retention time of 722 s. With `Cc1ccn2cc(-c3ccc(NC(=O)c4ccco4)cc3)nc2n1` the figure was 596 s; with `CC(C)c1noc(-c2ccnc(-n3cnc(C(=O)NC4CCCCCC4)c3)c2)n1`, 771 s; with `Cc1noc(C)c1-c1ccc(S(=O)(=O)Nc2ccc(C#N)cc2)cc1`, 874 s. The same measure for `COc1ccc(NC(=O)C2CCN(c3nc4ccc(-c5cncnc5)nc4s3)CC2)cc1`: 860 s.

For the compound `O=C(Nc1ccc2c(N3CCCCC3)ncnc2c1)c1cncc(Br)c1`, the RP-LC retention time came out at 664 s.

Regarding `N#Cc1ccc(S(=O)(=O)N2CCC(C(=O)NCC(=O)N3CCCc4ccccc43)CC2)cc1`, the RP-LC retention time is 832 s. `CCn1ccc2c(cc(C(=O)Nc3ccc(C(C)C)cc3)n2C)c1=O` displayed an RP-LC retention time of 902 s. The same measure for `Cc1ccccc1CNC(=O)CN1C(=O)C(C)(C)c2ccccc21`: 874 s; for `O=C(CN1C(=O)CCc2cc(Br)ccc21)N1CCN(c2ccccn2)CC1`: 621 s.

The compound `CC1CCCN(C(=O)c2nc(-c3ccnc(N4CCCC4)c3)no2)C1` (stereo not drawn) had an RP-LC retention time of 682 s. With `C=CCc1c(C)nc2c(-c3ccccc3)cnn2c1NCCN(C)C` the figure was 660 s; with `CC(C)S(=O)(=O)N1CCCC(Cn2cc(COc3ccc4c(c3)CCC4)nn2)C1` (stereo not drawn), 595 s. On to `Cc1ccc(NC(=O)C2CCCN(S(=O)(=O)c3cn(C(C)C)cn3)C2)c(Cl)c1` (stereo not drawn), for which the RP-LC retention time came to 834 s.

For `Cc1ccc2c(Nc3ccc(C(C)C)cc3)c(C(=O)N3CCC(C)CC3)cnc2n1`, the RP-LC retention time came to 737 s.

Take `O=C1NC2(CCN(C(=O)c3ccccc3F)CC2)N=C1c1ccc(Cl)cc1`: the RP-LC retention time was found to be 871 s. Regarding `CC1=NS(=O)(=O)N(C)C=C1C(=O)OCc1noc(-c2ccccc2F)n1`, the RP-LC retention time came out at 914 s. The same measure for `COc1cc(C(C)c2cc3c(cc2OCCO)OCO3)cc(OC)c1OC` (stereo not drawn): 798 s; for `COc1ccc(-c2cc3n(n2)CCCN(C(=O)NCc2ccco2)C3)cc1`: 743 s; for `Cc1ccc(-c2nc(C(=O)N3CCN(c4ccccc4)CC3)cs2)n1C`: 1080 s. `COCCNC(=O)NC1CCN(C2=NS(=O)(=O)C(c3ccc(C)cc3)=C2C)CC1` returned an RP-LC retention time of 1140 s. The same measure for `CC(C)c1noc(-c2cccnc2N2CCCN(C(=O)NCc3ccccc3)CC2)n1`: 920 s; for `O=C(CC1CCCC1)N1[C@H]2CC[C@@H]1c1cnc(-c3ccc(F)cc3)nc1C2`: 1060 s; for `COCCc1noc(-c2ccc(=O)n(CC(=O)Nc3cc(F)ccc3C)c2)n1`: 704 s. With `O[C@@H]1C[C@@H](c2nnc3n2CCN(Cc2ccccc2)C3)N(Cc2cccnc2)C1` the figure was 563 s; with `COc1ccc(Cn2nc3c(S(=O)(=O)N4CCOCC4)cccn3c2=O)cc1F`, 773 s; with `CC(Oc1cccc(Cl)c1)C(=O)NCC1CCOCC1` (stereo not drawn), 779 s.

Turning to `Cn1nccc1-c1cccc(-c2noc(-c3cc(F)cc(F)c3)n2)c1`, the RP-LC retention time was found to be 1220 s.

`O=C(NCc1ccc(C(F)(F)F)cc1)C1CCN(c2nnc(-c3ccccc3)o2)CC1` gave an RP-LC retention time of 901 s. The same measure for `O=C(NCC(=O)N1CCN(c2ncccn2)CC1)c1c[nH]c2ccccc12`: 615 s; for `CCOc1ccc(S(=O)(=O)N2CCC[C@@H]2C(=O)NCc2csc(C)n2)cc1`: 743 s. With `Cc1cccc(-c2nnc(-c3cccc(S(=O)(=O)N4CCC(C)CC4)c3)o2)c1` the figure was 1220 s. With `CCCc1noc(-c2ccc(-n3ncc(C(=O)N4CCSCC4)c3C)nc2)n1` the figure was 967 s. The compound `Cc1cc(C)cc(N2C(=O)N(CC(=O)N3CCC(C)CC3)C3CS(=O)(=O)CC32)c1` (stereo not drawn) returned an RP-LC retention time of 816 s. With `O=C(c1cccnc1)N1CCC(c2nc(-c3ccccc3)no2)C1` (stereo not drawn) the figure was 726 s; with `CCc1ccc(-n2ncc3c(=O)n(Cc4nc(-c5ccc(SC)cc5)no4)cnc32)cc1`, 1210 s.

In the case of `Cc1nc(Cn2cccc2C(=O)Nc2cccc(Br)c2)no1`, the RP-LC retention time was found to be 936 s. For the compound `CCN1CCN(C(=O)c2cn(-c3ccc(S(=O)(=O)N4CCCC(C)C4)cn3)cn2)CC1` (stereo not drawn), the RP-LC retention time came out at 659 s.

Regarding `CNC(=O)c1ccc(Nc2c(-c3ccc(OC)c(OC)c3)nc3cnccn23)cc1`, the RP-LC retention time was determined as 606 s.

With `CCOC(=O)CSc1nnc(NC(=O)c2ccc(S(=O)(=O)N(C)C)cc2)s1`, the RP-LC retention time was 772 s. The same measure for `CC1=C(C(=O)N2CCOCC2)C(c2cc(Br)ccc2F)C2=C(CC(C)(C)CC2=O)N1` (stereo not drawn): 715 s; for `CCOc1ccc(-c2nc(-c3ccc4c(c3)oc(=O)n4C(C)C)no2)cc1OCC`: 1260 s. With `CC(C)(C)c1cc(NC(=O)CSCc2ccccc2)n(CCO)n1` the figure was 772 s; with `CCOc1ccc(NC(=O)c2oc3ccccc3c2C)c2cccnc12`, 698 s. The same measure for `O=C(CSc1cc(N2CCCCC2)ncn1)Nc1cccc(C(F)(F)F)c1`: 1020 s; for `O=C(Cn1ccn2nc(-c3ccc(F)cc3)c(CO)c2c1=O)Nc1ccc2c(c1)CCC2`: 908 s; for `O=C(C1CCC1)N1CCC(c2noc(-c3cnccn3)n2)C1` (stereo not drawn): 655 s.

The values are drawn from the METLIN SMRT retention time set (Domingo-Almenara et al. 2019).
